Source: patent US5573922A, “Immunological detection method for triazines” (Boehringer Mannheim GmbH, priority 1993, dated 1996)

Legend:
[1] = tested on: antiserum S 4612 (sheep antiserum against triazine); test: Competitive ELISA, sheep triazine antiserum with homologous POD conjugate atra(terbutyl-6ah)-OSu-POD; assay type: binding; settings: 30 mU/ml; for lower detection limit (ng/l) / lower detection limit: concentration at which signal is 80% of maximum signal; for cross reaction (%): relative to terbutylazine (quotient of hapten concentrations at half maximum signal)
Method: (§1) Microtitre plates (Maxisorp F96,Nunc Co. Order No. 4-42404) are coated with antibodies against the Fc part of sheep IgG which have been obtained by immunosorptive purification of the IgG fraction from donkey antiserum. The donkey antibody is dissolved in the coating buffer at a concentration of 10 µg/ml protein and 100 μl of this solution is pipetted into each well of the microtitre plate. After incubating for 1 hour at room temperature while shaking, the solution is discarded and the plate is washed three times with washing solution.
(§2) Sheep antiserum against triazine is diluted 1:50,000 with incubation buffer. Each well of the microtitre plate is coated with 100 μl of the diluted solution. During the incubation period (1 hour, conditions as above) the IgG molecules from the sheep serum bind to the donkey antibodies bound to the wall. They are subsequently washed as above.
(§3) The wells of the microtitre plate which were precoated as previously described, are filled with these solutions (100 μl in each case), incubated for 1 hour and subsequently washed as described.
(§4) The free hapten molecules compete with the hapten-POD conjugate for the limited amount of hapten-specific antibodies on the wall of the wells. The less conjugate is bound the more free hapten is present in the solution and the better the hapten is recognized by the antibodies.
(§5) Every well is filled with 100 μl substrate solution and incubated while shaking until the colour development in the samples without hapten appears subjectively to be high enough. Then the absorbance in all wells is determined as a differential measurement at the wavelengths 405/492 nm.
(§6) In the graph of the measured signal as a function of the hapten concentration used, the "relative affinity", i.e. the hapten concentration whose measured signal is half the size of the maximum signal (at a hapten concentration of 0), is determined for each triazine compound. In this process a linear interpolation is made between selected measurement points on the curve. This gives the cross-reaction of the triazines in relation to terbutylazine as the quotient [formula]
(§7) The "lower limit of detection" is determined in an analogous manner for each triazine compound as the concentration at which the measured signal is 80% of the maximum signal.
In a second experiment the cross reaction and the lower limit of detection for each of the above-mentioned triazines is determined in an analogous manner using the homologous conjugate atra(terbutyl-6ah)-OSu-POD. In this case the POD concentration is 30 mU/ml. The highest hapten concentrations are 10,000 ng/l for terbutylazine and 100,000 ng/l for all triazines.
Eight further hapten concentrations are prepared by serial dilution of these solutions in a ratio of 1:2 and a blank value without triazine is determined in each case.

[2] = tested on: antiserum S 4612 (sheep antiserum against triazine); test: Competitive ELISA, sheep triazine antiserum with heterologous POD conjugate atra(deethyl-4-ED)-SATP-PODp(MH); assay type: binding; settings: 50 mU/ml; for lower detection limit: concentration at which signal is 80% of maximum signal; for cross reaction (%): relative to terbutylazine (quotient of hapten concentrations at half maximum signal)
Method: 10 sheep are immunized with triazine immunogen according to example 1 in Freund's adjuvant. The dose is […] per animal. The immunizations are repeated over six months or longer, each at intervals of 4 weeks. Antiserum samples are taken from all animals once per month and examined for the presence of triazine antibodies. For this purpose a series of terbutylazine standards are measured in a competitive ELISA using the heterologous POD conjugate atra(deethyl-4-ED)-SATP-POD(MH) according to example 3. The procedure for this measurement is described in detail in example 5.
as §1, §2
A series of solutions is prepared which contain terbutylazine at concentrations of 1000/500/250/125/62.5/31/16/8/4/0 ng/l as well as the conjugate atra(deethyl-4-ED)-SATP-PODp(MH) according to the invention at a standard concentration of 50 mU/ml in the incubation buffer.
Dilution series of other triazines are prepared in a similar manner with maximum concentrations of […] (atrazine, cyanazine and desethylterbutylazine), 10,000 ng/l (propazine, simazine, desethylatrazine) and 100,000 ng/l (desisopropylatrazine) and dilution steps of 1:2 which also contain the said hapten-POD conjugate.
as §3, §4, §5, §6, §7

Compound	lower detection limit (ng/l) [1]	cross reaction (%) [1] [%]	lower detection limit [2] [ng/L]	cross reaction (%) [2] [%]	lower detection limit [1] [ng/L]
CCNc1nc(Cl)nc(NC(C)C)n1 [atrazine]	1,600 ng/l	4	17	73	–
CCNc1nc(Cl)nc(NC(C)(C)C#N)n1 [cyanazine]	–	11	10	102	310
CC(C)Nc1nc(N)nc(Cl)n1 [desethylatrazine]	9,500 ng/l	< 0.3	90	7	–
CC(C)(C)Nc1nc(N)nc(Cl)n1 [desethylterbutylazine]	–	9	10	102	430
CC(C)Nc1nc(Cl)nc(NC(C)C)n1 [propazine]	–	8	24	26	620
CCNc1nc(Cl)nc(NCC)n1 [simazine]	–	0.9	60	10	4.100
CCNc1nc(Cl)nc(NC(C)(C)C)n1 [terbutylazine]	–	100	12	100	100
